{"source": "paper PMC6105804", "about": "“In Vitro and In Vivo Evaluation of APX001A/APX001 and Other Gwt1 Inhibitors against Cryptococcus” (Antimicrobial Agents and Chemotherapy, 2018)", "key": {"[1]": {"assay": "Acute toxicity and survival observed in the CM model with ABT", "type": "in vivo, mouse", "settings": "i.p. dosing + ABT; dose then reduced to 60 mg/kg for surviving mice", "procedure": "(§1) ABT at 100 mg/kg was administered orally to male CD-1 mice at 2 h prior to each APX compound dose. Mice were injected with 6.9 × 10^4 CFU of C. neoformans strain H99 per mouse via the lateral tail vein at time zero. Treatment with the APX compound was initiated at about 1 h postinfection by i.p. administration and continued for 7 days, with 100-mg/kg ABT being administered orally 2 h prior to each APX compound dose. […] Fungal burden data were log10 transformed and evaluated using Kruskal-Wallis tests with Dunn's multiple-comparison test for post hoc analysis (Prism software, v5; GraphPad Software, Inc., San Diego, CA). A P value of ≤0.05 was considered statistically significant (*, P ≤ 0.05; **, P ≤ 0.01). The 95% confidence interval (CI) is presented.\n(§2) C. neoformans strain H99 was grown in yeast extract-peptone-dextrose broth at 30°C on a shaker (220 rpm) for 24 h, centrifuged (1,980 relative centrifugal force), and washed twice in phosphate-buffered saline (PBS), resuspended in PBS, and quantified by hemacytometric count. Male CD-1 mice were infected with ∼5 × 10^4 CFU per mouse via lateral tail vein injection of 100 μl. Mice were weighed, and treatment was begun within 1 h after infection. Treatments were administered daily for 7 days. Mice were weighed daily and observed for acute and chronic adverse symptoms. Mice were sacrificed on day 8, and the brain and left lung were homogenized and cultured for quantitative determination of the tissue burden (number of CFU per gram of tissue). Tissues were homogenized for 25 s in 1 ml phosphate-buffered saline using two 6.5-mm steel beads and a Mini-Beadbeater 16 apparatus (Biospec Products, Inc., Bartlesville, OK) and serially diluted in 10-fold steps. Aliquots (100 μl) of homogenate were plated and incubated for 3 to 7 days at 37°C. Fungal burden data were log10 transformed and evaluated using Kruskal-Wallis tests with Dunn's multiple-comparison test for post hoc analysis (Prism software, v5; GraphPad Software, Inc., San Diego, CA). A P value of ≤0.05 was considered statistically significant."}, "C. neoformans strain H99 [2]": {"test_system": "C. neoformans strain H99", "assay": "Murine cryptococcal meningitis model with ABT pretreatment (preliminary experiment)", "type": "in vivo, Cryptococcus neoformans", "settings": "7 days", "procedure": "In a preliminary experiment, the efficacies of APX001, APX2096, and APX2097 were evaluated in the disseminated model of CM (n = 5 mice/cohort). ABT at 100 mg/kg was administered orally to male CD-1 mice 2 h prior to APX compound administration. Mice were injected with 6.9 × 10^4 CFU of C. neoformans strain H99 per mouse via the lateral tail vein at time zero. Treatment with each prodrug was initiated at about 1 h postinfection by i.p. administration and continued daily for 7 days, with 100-mg/kg ABT being administered orally 2 h prior to each APX compound dose.\nas §1, §2"}, "C. neoformans strain H99 [3]": {"test_system": "C. neoformans strain H99", "assay": "Delayed-treatment model of cryptococcal meningitis", "type": "in vivo, Cryptococcus neoformans", "settings": "treatment from 24 h after infection, QD 7 days; APX2096 60 mg/kg i.p. + ABT, AMB 3 mg/kg i.p.", "procedure": "As in the previous mouse model, 100-mg/kg ABT (p.o.) was administered 2 h prior to each APX2096 dose (n = 5 mice/cohort). Infection was initiated on day 1, and treatment was initiated 24 h later (day 2) rather than 1 h later. Treatments were administered for 7 days (the final dose was administered on day 8), and mice were sacrificed on day 9 for CFU enumeration.\nMale CD-1 mice were infected with 5.4 × 10^4 CFU per mouse via lateral tail vein injection. […] A dose of 100-mg/kg ABT was administered orally 2 h prior to each APX2096 dose. Mice were sacrificed 24 h after the last dose, and the brain and left lung were homogenized and cultured for quantitative determination of the tissue burden (number of CFU per gram of tissue). Fungal burden data were log10 transformed and evaluated using Kruskal-Wallis tests with Dunn's multiple-comparison test for post hoc analysis (Prism software, v5; GraphPad Software, Inc., San Diego, CA). A P value of ≤0.05 was considered statistically significant (*, P ≤ 0.05; **, P ≤ 0.01). The 95% confidence interval (CI) is presented.\nFungal burden data were log10 transformed and evaluated using Kruskal-Wallis tests with Dunn's multiple-comparison test for post hoc analysis (Prism software, v5; GraphPad Software, Inc., San Diego, CA). A P value of ≤0.05 was considered statistically significant."}, "C. neoformans strain H99 [4]": {"test_system": "C. neoformans strain H99", "assay": "Murine cryptococcal meningitis model with ABT, dose-response study", "type": "in vivo, Cryptococcus neoformans", "procedure": "A dose-response study was performed with APX2096 and APX2097 to confirm the observed activity. In this study, QD doses of 7.5, 20, and 60 mg/kg were evaluated in conjunction with the administration of ABT. A 60-mg/kg dose QD without ABT was also evaluated as a control.\nFIG 3 Dose-response of APX2096 and APX2097 in a murine model of cryptococcal meningitis in conjunction with ABT administration. ABT at 100 mg/kg was administered orally to male CD-1 mice at 2 h prior to each APX compound dose. Mice were injected with 4.8 × 10^4 CFU C. neoformans strain H99 per mouse via the lateral tail vein at time zero. Treatment with the APX compounds was initiated at 1 h postinfection by i.p. administration and continued for 7 days, with 100-mg/kg ABT being administered orally 2 h prior to each APX compound dose. The correction factors for prodrug potencies versus the potencies of the active moieties were similar enough such that the same factor (1.3) was used for all APX compounds. Fungal burden data were log10 transformed and evaluated using Kruskal-Wallis tests with Dunn's multiple-comparison test for post hoc analysis (Prism software, v5; GraphPad Software, Inc., San Diego, CA). […] A P value of ≤0.05 was considered statistically significant (*, P ≤ 0.05; **, P ≤ 0.01; ***, P ≤ 0.001). The 95% confidence interval (CI) is presented.\nas §2"}, "[5]": {"settings": "34 mg/kg QD i.p. + ABT 100 mg/kg p.o."}}, "data": [{"molecule": "Nc1c(-c2cc(Cc3ccc(Oc4cccc(F)n4)cc3)no2)ccc[n+]1COP(=O)([O-])O", "note": "[APX2096]", "values": [{"measurement": "Acute toxicity observed (day of treatment)", "setting": "[1]", "value": "day 1"}, {"measurement": "reduction in brain fungal burden", "setting": "C. neoformans strain H99 [2]; [5]", "value": 7.05, "unit": "log10 CFU/g"}, {"measurement": "reduction in lung fungal burden", "setting": "C. neoformans strain H99 [2]; [5]", "value": "approximately 4.67 log10 CFU/g"}, {"measurement": "reduction in brain fungal burden", "setting": "C. neoformans strain H99 [2]; 60 mg/kg i.p. (dose reduced after day 1) + ABT", "value": 7.13, "unit": "log10 CFU/g"}, {"measurement": "reduction in lung fungal burden", "setting": "C. neoformans strain H99 [2]; 60 mg/kg i.p. (dose reduced after day 1) + ABT, burden below the limit of detection", "value": "approximately 4.67 log10 CFU/g"}, {"measurement": "reduction in brain tissue fungal burden vs untreated control", "setting": "C. neoformans strain H99 [3]", "value": 6.84, "unit": "log10 CFU/g"}, {"measurement": "reduction of the lung tissue fungal burden vs untreated control", "setting": "C. neoformans strain H99 [3]", "value": 4.59, "unit": "log10 CFU/g"}, {"measurement": "reduction in brain fungal burden", "setting": "C. neoformans strain H99 [4]; 20 mg/kg QD i.p. + ABT", "value": 2.95, "unit": "log10 CFU/g"}, {"measurement": "reduction in lung fungal burden", "setting": "C. neoformans strain H99 [4]; 20 mg/kg QD i.p. + ABT", "value": 3.69, "unit": "log10 CFU/g"}, {"measurement": "reduction in lung burden, without ABT", "setting": "C. neoformans strain H99 [4]; 60 mg/kg/day i.p. without ABT, nonsignificant", "value": 0.74, "unit": "log10 CFU/g"}]}]}
